Data as given in patent US20050209278A1, “Piperidinyl- and piperazinyl-sulfonylmethyl hydroxamic acids and their use as protease inhibitors” (priority 2002, published 2005).
pKi: −log10 of the molar value. Structures can show the parent of a compound that is named as a salt. Where two headings read alike, the source gives them in different places.

Assays:
Format in all cases: biochemical
MMP-2 = target: T1, MMP-2 (Homo sapiens, UniProt P08253); experiment: MMP-2 inhibition (in vitro Ki)
T1 construct: made in house; host or cells: MMP-2-transfected p2AHT2 cells
T1 sequence (P08253 110-660): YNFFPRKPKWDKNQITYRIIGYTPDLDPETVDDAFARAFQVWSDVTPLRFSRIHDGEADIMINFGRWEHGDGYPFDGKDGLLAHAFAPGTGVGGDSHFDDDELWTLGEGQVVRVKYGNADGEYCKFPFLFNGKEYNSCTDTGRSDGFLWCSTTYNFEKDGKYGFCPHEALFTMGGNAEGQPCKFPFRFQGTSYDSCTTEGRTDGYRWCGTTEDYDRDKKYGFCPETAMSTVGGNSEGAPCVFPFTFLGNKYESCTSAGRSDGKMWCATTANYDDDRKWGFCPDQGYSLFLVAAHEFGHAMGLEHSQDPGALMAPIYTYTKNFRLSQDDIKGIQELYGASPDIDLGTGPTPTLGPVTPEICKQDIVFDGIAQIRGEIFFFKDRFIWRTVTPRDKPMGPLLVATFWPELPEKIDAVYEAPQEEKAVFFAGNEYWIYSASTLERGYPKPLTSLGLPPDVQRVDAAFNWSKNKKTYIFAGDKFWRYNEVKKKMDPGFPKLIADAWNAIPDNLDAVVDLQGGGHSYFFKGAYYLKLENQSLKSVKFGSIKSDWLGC

MMP-9 = target: T2, MMP-9 (Homo sapiens, UniProt P14780); experiment: MMP-9 inhibition (in vitro Ki)
T2 construct: made in house; host or cells: MMP-9-transfected HT1080 cells (spent media)

MMP-14 = target: T3, MMP-14 (Homo sapiens, UniProt P50281); experiment: MMP-14 inhibition (in vitro Ki)
T3 construct: The catalytic domain enzyme was expressed in E. coli inclusion bodies, solubilized in urea; made in house

MMP-13 = target: T4, MMP-13 (Homo sapiens, UniProt P45452); experiment: MMP-13 inhibition (in vitro Ki)
T4 construct: made in house; host or cells: baculovirus / insect cells

MMP-1 = target: T5, MMP-1 (Homo sapiens, UniProt P03956); experiment: MMP-1 inhibition (in vitro Ki)
T5 construct: made in house; host or cells: MMP-1-transfected HT-1080 cells (spent media)
T5 sequence (P03956 100-469): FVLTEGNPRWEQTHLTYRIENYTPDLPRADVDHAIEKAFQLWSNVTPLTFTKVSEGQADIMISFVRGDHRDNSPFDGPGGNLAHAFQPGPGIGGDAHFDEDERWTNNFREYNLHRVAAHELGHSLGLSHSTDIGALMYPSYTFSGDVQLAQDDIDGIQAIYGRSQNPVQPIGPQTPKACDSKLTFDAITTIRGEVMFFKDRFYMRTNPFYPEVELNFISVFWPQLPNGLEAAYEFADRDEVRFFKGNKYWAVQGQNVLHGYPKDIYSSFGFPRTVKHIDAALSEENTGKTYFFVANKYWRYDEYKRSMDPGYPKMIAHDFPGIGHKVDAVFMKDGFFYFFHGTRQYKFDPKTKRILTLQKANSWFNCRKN

[1] = Table 9, read-out: MMP-2 Ki (IC-50)
[2] = Table 9, read-out: MMP-9 Ki (IC-50)
[3] = Table 9, read-out: MMP-14 Ki (IC-50)
[4] = Table 9, read-out: MMP-13 Ki (IC-50)
[5] = Table 9, read-out: MMP-1 Ki (IC-50)

T2 sequence (P14780 107-707 limits assumed): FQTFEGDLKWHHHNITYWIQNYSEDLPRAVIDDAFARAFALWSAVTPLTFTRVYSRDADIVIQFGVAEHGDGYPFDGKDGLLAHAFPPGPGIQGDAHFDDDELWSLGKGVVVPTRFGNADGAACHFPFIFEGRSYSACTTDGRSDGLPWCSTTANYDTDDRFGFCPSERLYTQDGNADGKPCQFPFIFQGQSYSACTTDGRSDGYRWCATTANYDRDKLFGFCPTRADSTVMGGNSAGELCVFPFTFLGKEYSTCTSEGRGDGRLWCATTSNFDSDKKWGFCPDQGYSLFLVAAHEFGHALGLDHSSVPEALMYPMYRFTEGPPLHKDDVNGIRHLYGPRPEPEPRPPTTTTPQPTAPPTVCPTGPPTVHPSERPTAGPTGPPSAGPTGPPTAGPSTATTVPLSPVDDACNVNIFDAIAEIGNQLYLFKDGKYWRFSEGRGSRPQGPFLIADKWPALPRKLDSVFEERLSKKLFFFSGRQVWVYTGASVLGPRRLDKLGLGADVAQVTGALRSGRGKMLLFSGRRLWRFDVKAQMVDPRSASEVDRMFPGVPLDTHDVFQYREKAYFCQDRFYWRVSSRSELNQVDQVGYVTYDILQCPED

SMILES | pKi (MMP-2; [1]) | pKi (MMP-9; [2]) | pKi (MMP-14; [3]) | pKi (MMP-13; [4]) | pKi (MMP-1; [5]) | other results
O=C(CCCCC1CCN(S(=O)(=O)C2(C(=O)NO)CCOCC2)CC1)N1CCN(c2ccccc2)CC1 [Example A98] | 7.42 | 6.72 | < 5.00 | 9.77 | 5.79 | 
CCCCC=CCCOC1CCN(S(=O)(=O)C2(C(=O)NO)CCOCC2)CC1 [Example A36C] |  |  |  |  |  | pKi (MMP-2; Table 8, read-out: MMP-2 Ki): 8.41; pKi (MMP-9; Table 8, read-out: MMP-9 Ki): 8.47; pKi (MMP-14; Table 8, read-out: MMP-14 Ki): 5.72; pKi (MMP-13; Table 8, read-out: MMP-13 Ki): 8.91; pKi (MMP-1; Table 8, read-out: MMP-1 Ki): < 5.00
O=C(NO)C1(S(=O)(=O)N2CCC(c3ccc(/C=C/C(F)(F)C(F)(F)F)cn3)CC2)CCOCC1 [Example A116] | 9.72 | 9.85 | 6.48 | 10.10 | 5.77 | 
O=C(NO)C1(S(=O)(=O)N2CCN(c3ccc(-c4cccs4)cn3)CC2)CCOCC1 [Example A187] | 9.27 | 8.67 | 5.91 | 9.25 | 6.03 | 
CC(C)(C(=O)NO)S(=O)(=O)N1CCC(c2ccc(CCC(F)(F)C(F)(F)F)cn2)CC1 [Example A122] | 9.43 | 9.57 | 5.59 | 9.92 | 5.51 | 
CCCCCOCCC1CCN(S(=O)(=O)C2(C(=O)NO)CCOCC2)CC1 [Example A47, 4-[4-(2-pentyloxy-ethyl)-piperidine-1-sulfonyl]-tetrahydro-pyran-4-carboxylic Acid Hydroxyamide] |  |  |  |  |  | pKi (MMP-2; Table 8, read-out: MMP-2 Ki): 7.73; pKi (MMP-9; Table 8, read-out: MMP-9 Ki): 7.99; pKi (MMP-14; Table 8, read-out: MMP-14 Ki): < 5.00; pKi (MMP-13; Table 8, read-out: MMP-13 Ki): 7.90; pKi (MMP-1; Table 8, read-out: MMP-1 Ki): < 5.00
O=C(NO)C1(S(=O)(=O)N2CCC(c3ccc(OCC(F)(F)C(F)F)cn3)CC2)CCOCC1 [Example A59, N-hydroxy-4-({4-[5-(2,2,3,3-tetrafluoropropoxy)pyridin-2-yl]piperidin-1-yl}sulfonyl)tetrahydro-2H-pyran-4-carboxamide Hydrochloride] |  |  |  |  |  | pKi (MMP-2; Table 8, read-out: MMP-2 Ki): 9.12; pKi (MMP-9; Table 8, read-out: MMP-9 Ki): 8.81; pKi (MMP-14; Table 8, read-out: MMP-14 Ki): 5.29; pKi (MMP-13; Table 8, read-out: MMP-13 Ki): 9.21; pKi (MMP-1; Table 8, read-out: MMP-1 Ki): 5.78
O=C(NO)C1(S(=O)(=O)N2CCC(CCCCc3nc(-c4ccc(OC(F)(F)F)cc4)no3)CC2)CCOCC1 [Example A64, N-hydroxy-4-{[4-(4-{3-[4-(trifluoromethoxy)phenyl]-1,2,4-oxadiazol-5-yl}butyl)piperidin-1-yl]sulfonyl}tetrahydro-2H-pyran-4-carboxamide] |  |  |  |  |  | pKi (MMP-2; Table 8, read-out: MMP-2 Ki): 7.20; pKi (MMP-9; Table 8, read-out: MMP-9 Ki): 6.56; pKi (MMP-14; Table 8, read-out: MMP-14 Ki): < 5.00; pKi (MMP-13; Table 8, read-out: MMP-13 Ki): 9.29; pKi (MMP-1; Table 8, read-out: MMP-1 Ki): 5.05
O=C(NO)C1(S(=O)(=O)N2CCC(c3ccc(CCC(F)(F)C(F)(F)F)cn3)CC2)CCN(c2ccccc2)CC1 [Example A167] | 8.52 | 8.66 | < 5.00 | 8.81 | < 5.00 | 
CCCCCCCCOC1CCN(S(=O)(=O)C2(C(=O)NO)CCOCC2)CC1 [Example A36B] |  |  |  |  |  | pKi (MMP-2; Table 8, read-out: MMP-2 Ki): 8.73; pKi (MMP-9; Table 8, read-out: MMP-9 Ki): 8.87; pKi (MMP-14; Table 8, read-out: MMP-14 Ki): 5.97; pKi (MMP-13; Table 8, read-out: MMP-13 Ki): 9.20; pKi (MMP-1; Table 8, read-out: MMP-1 Ki): < 5.00
COCCC(CCOC)(C(=O)NO)S(=O)(=O)N1CCC(Oc2ccc(SC(F)(F)F)cc2)CC1 [Example B4, N-hydroxy-4-methoxy-2-(2-methoxyethyl)-2-[(4-{4-[(trifluoromethyl)thio]phenoxy}piperidin-1-yl)sulfonyl]butanamide] |  |  |  |  |  | pKi (MMP-2; Table 10, read-out: MMP-2 Ki): 9.18; pKi (MMP-9; Table 10, read-out: MMP-9 Ki): 9.74; pKi (MMP-14; Table 10, read-out: MMP-14 Ki): 5.79; pKi (MMP-13; Table 10, read-out: MMP-13 Ki): 9.35; pKi (MMP-1; Table 10, read-out: MMP-1 Ki): 5.69
Cc1cnn(-c2ccc(C3CCN(S(=O)(=O)C4(C(=O)NO)CCOCC4)CC3)nc2)c1 [Example A193] | 8.33 | 8.08 | 5.55 | 8.68 | 5.33 | 
CC(F)(F)CCc1ccc(C2CCN(S(=O)(=O)C3(C(=O)NO)CCOCC3)CC2)nc1 [Example A63, 4-({4-[5-(3,3-difluorobutyl)pyridin-2-yl]piperidin-1-yl}sulfonyl)-N-hydroxytetrahydro-2H-pyran-4-carboxamide Hydrochloride] |  |  |  |  |  | pKi (MMP-2; Table 8, read-out: MMP-2 Ki): 9.30; pKi (MMP-9; Table 8, read-out: MMP-9 Ki): 9.66; pKi (MMP-14; Table 8, read-out: MMP-14 Ki): 5.74; pKi (MMP-13; Table 8, read-out: MMP-13 Ki): 9.41; pKi (MMP-1; Table 8, read-out: MMP-1 Ki): 5.36
O=C(NO)C1(S(=O)(=O)N2CCC(c3ccc(CCC(F)(F)C(F)(F)F)cn3)CC2)CCN(c2ncccn2)CC1 [Example A178] | 9.06 | 9.22 | 5.71 | 9.36 | < 5.00 | 
O=C(NO)C1(S(=O)(=O)N2CCC(c3ccc(C#CCc4ccccc4)cn3)CC2)CCOCC1 [Example A134] | 9.19 | 8.90 | 6.72 | 9.96 | 5.90 | 
O=C(NO)C1(S(=O)(=O)N2CCC(c3ccc(-c4nccs4)cn3)CC2)CCOCC1 [Example A200] | 8.05 | 8.17 | < 5.00 | 8.17 | < 5.00 | 
O=C(CCCCN1CCN(S(=O)(=O)C2(C(=O)NO)CCOCC2)CC1)c1cccc(OC(F)(F)F)c1 [Example A140] | 6.41 | 6.09 | < 5.00 | 7.90 | < 5.00 | 
CN(C(=O)/C=C/C=C/C1CCN(S(=O)(=O)C2(C(=O)NO)CCOCC2)CC1)C1CCCCC1 [Example A79] | 5.61 | < 5.00 | < 5.00 | 8.23 | < 5.00 | 
O=C(NO)C1(S(=O)(=O)N2CCC(c3cnc(OCC(F)(F)C(F)F)cn3)CC2)CCOCC1 [Example A206] | 9.15 | 9.08 | 5.24 | 9.05 | 5.35 | 
O=C(NO)C1(S(=O)(=O)N2CCC(CCCOCCCC(F)(F)F)CC2)CCOCC1 [Example A36J] |  |  |  |  |  | pKi (MMP-2; Table 8, read-out: MMP-2 Ki): 8.11; pKi (MMP-9; Table 8, read-out: MMP-9 Ki): 7.99; pKi (MMP-14; Table 8, read-out: MMP-14 Ki): 5.18; pKi (MMP-13; Table 8, read-out: MMP-13 Ki): 8.36; pKi (MMP-1; Table 8, read-out: MMP-1 Ki): < 5.00

Continued, in another order:

pKi (MMP-2; [1]) | pKi (MMP-9; [2]) | pKi (MMP-14; [3]) | pKi (MMP-13; [4]) | pKi (MMP-1; [5]) | SMILES | other results
7.53 | 6.33 | 5.07 | 9.18 | 5.99 | O=C(CCCCC1CCN(S(=O)(=O)C2(C(=O)NO)CCOCC2)CC1)Nc1ccc(OC(F)(F)F)cc1 [Example A89] | 
6.45 | 6.74 | < 5.00 | 7.18 | < 5.00 | Cc1ccc(N(C)C(=O)CCCC2CCN(S(=O)(=O)C3(C(=O)NO)CCOCC3)CC2)cc1 [Example A142] | 
6.46 | 6.58 | < 5.00 | 7.50 | < 5.00 | CN(C(=O)CCCC1CCN(S(=O)(=O)C2(C(=O)NO)CCOCC2)CC1)c1ccc(F)cc1 [Example A146] | 
8.63 | 8.01 | 5.36 | 8.28 | < 5.00 | CC(F)(F)Cc1ccc(C2CCN(S(=O)(=O)C3(C(=O)NO)CCOCC3)CC2)nc1 [Example A152] | 
9.51 | 9.32 | 6.22 | 9.55 | 5.58 | CC(=O)OCCCC#Cc1ccc(C2CCN(S(=O)(=O)C3(C(=O)NO)CCOCC3)CC2)nc1 [Example A135] | 
9.24 | 10.10 | 5.89 | 9.37 | 5.29 | O=C(NO)C1(S(=O)(=O)N2CCC(c3ccc(CCC4CC4)cn3)CC2)CCOCC1 [Example A123] | 
7.66 | 7.18 | 5.10 | 9.74 | 6.29 | O=C(CCCCC1CCN(S(=O)(=O)C2(C(=O)NO)CCOCC2)CC1)N1CCc2ccccc2C1 [Example A74] | 
8.18 | 8.42 | 5.76 | 8.28 | 5.57 | COC(=O)CCCC1CCN(S(=O)(=O)C2(C(=O)NO)CCOCC2)CC1 [Example A148] | 
8.35 | 8.15 | 5.18 | 8.58 | < 5.00 | COCCOc1ccc(C2CCN(S(=O)(=O)C3(C(=O)NO)CCOCC3)CC2)nc1 [Example A149] | 
6.71 | 6.08 | < 5.00 | 8.93 | 5.55 | CN(C(=O)CCCCC1CCN(S(=O)(=O)C2(C(=O)NO)CCOCC2)CC1)c1ccccc1 [Example A94] | 
